Read-outs that look alike come from different tables or passages of the source.
Test system: HCV genotype 1b replicon in Huh 7 cells
Assay: HCV replicon assay (luciferase readout, 1b_Huh-Luc/Neo-ET cell line)
Format: cell-based
Conditions: Hepatitis C virus, Huh-7, 72 h
How it was run: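 Inhibition expressed as percent of untreated control luciferase signal and fitted to a Hill-slope equation for EC50, with repeat determinations. Compounds were added in triplicate to Huh 7 cells stably expressing the genotype 1b luciferase replicon, with 72 h exposure.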

[1] = read-out: Inhibition of HCV genotype 1b, Table 3, 72 h incubation
[2] = read-out: Inhibition of HCV genotype 1b, Table 5, 72 h incubation
[3] = read-out: Inhibition of HCV genotype 1b, Table 1, 72 h incubation

| SMILES | EC50 [1] [nM] | EC50 [2] [nM] | also measured |
| --- | --- | --- | --- |
| C[C@@H](c1ncc(C2CCN(c3c(F)cc(-c4cnc([C@@H]5CCCN5C(=O)[C@H](NC(=O)C5CC5)c5ccccc5)[nH]4)cc3F)CC2)[nH]1)N(C)C(=O)[C@H](NC(=O)C1CC1)c1ccccc1 [compound 511] | < 1 | – | – |
| CCNC(=O)N[C@H](C(=O)N1CCC[C@H]1c1ncc(C23CCC(c4ccc(-c5cnc([C@@H]6CCCN6C(=O)[C@@H](NC(=O)OC)C(C)C)[nH]5)cc4)(CC2)CC3)[nH]1)C(C)C [compound 2100] | – | < 1 | – |
| COC(=O)N[C@@H](C)C(=O)N1CCC[C@H]1c1ncc(-c2ccc(C34CCC(c5cnc([C@@H]6CCCN6C(=O)[C@@H](NC(=O)OC)C(C)C)[nH]5)(CC3)CC4)cc2)[nH]1 [compound 2081] | – | < 1 | – |
| O=C(N[C@@H](C(=O)N1CCC[C@H]1CNC(=O)C12CCC(c3ccc(-c4cnc([C@@H]5CCCN5C(=O)[C@H](NC(=O)C5CC5)c5ccccc5)[nH]4)cc3)(CC1)CC2)c1ccccc1)C1CC1 [compound 602] | – | < 1 | – |
| COC(=O)N[C@@H](C(=O)N1CCC[C@H]1c1ncc(C23CCC(c4ccc(-c5cnc([C@@H]6CCCN6C(=O)[C@H](OC)c6ccccc6)[nH]5)cc4)(CC2)CC3)[nH]1)c1ccccc1 [compound 620] | – | < 1 | – |
| CN(C)C(=O)N[C@@H](C(=O)N1CCC[C@H]1C(=O)NC1CCN(c2ccc(-c3cnc([C@@H]4CCCN4C(=O)[C@H](NC(=O)N(C)C)c4ccccc4)[nH]3)cc2F)CC1)c1ccccc1 [compound 457] | < 1 | – | – |
| O=C(N[C@@H](C(=O)N1CCC[C@H]1c1ncc(-c2ccc(N3CCC(c4cnc([C@@H]5CCCN5C(=O)[C@H](NC(=O)C5CC5)c5ccccc5)[nH]4)CC3)c(F)c2)[nH]1)c1ccccc1)C1CC1 [compound 451] | < 1 | – | – |
| COC(=O)N[C@@H](C(=O)N1CCOC[C@H]1c1ncc(-c2cc(F)c(N3CCC(c4cnc([C@@H]5CCCN5C(=O)[C@H](NC(=O)OC)c5ccccc5)[nH]4)CC3)c(F)c2)[nH]1)c1ccccc1 [compound 507] | < 1 | – | – |
| CN1CCN(C(=O)N[C@@H](C(=O)N2CCC[C@H]2c2ncc(-c3ccc(C4CCC(c5cnc([C@@H]6CCCN6C(=O)[C@H](NC(=O)N6CCN(C)CC6)c6ccccc6)o5)CC4)cc3)[nH]2)c2ccccc2)CC1 (stereo partly drawn) [compound 359] | – | – | EC50 [3]: 1 to 9.9 nM |
| O=C(N[C@@H](C(=O)N1CCC[C@H]1c1ncc(-c2ccc(C3CCC(c4cnc([C@@H]5CCCN5C(=O)[C@H](NC(=O)N5CCOCC5)c5ccccc5)o4)CC3)cc2)[nH]1)c1ccccc1)N1CCOCC1 (stereo partly drawn) [compound 358] | – | – | EC50 [3]: < 1 nM |
| COC(=O)N[C@@H](C(=O)N1CCC[C@H]1c1ncc(-c2cc(F)c(N3CCC(c4cnc([C@@H]5COCCN5C(=O)[C@H](NC(=O)C5CC5)c5ccccc5)[nH]4)CC3)c(F)c2)[nH]1)c1ccccc1 [compound 494] | < 1 | – | – |
| COC(=O)N[C@@H](C(=O)N1CCCC[C@H]1c1ncc(C2CCN(c3c(F)cc(-c4cnc([C@@H]5CCCN5C(=O)[C@H](NC(=O)C5CC5)c5ccccc5)[nH]4)cc3F)CC2)[nH]1)c1ccccc1 [compound 493] | < 1 | – | – |
| COC(=O)N[C@H](C(=O)N1CCC[C@H]1c1ncc(C23CCC(c4ccc(-c5cnc([C@@H]6CCCN6C(=O)[C@@H](NC(=O)N6CCC[C@H]6CO)C(C)C)[nH]5)cc4)(CC2)CC3)[nH]1)C(C)C [compound 652] | – | < 1 | – |
| COC(=O)N[C@@H](C(=O)N1CCC[C@H]1c1ncc(-c2cc(F)c(N3CCC(c4cnc([C@@H]5CCCCN5C(=O)[C@H](NC(=O)OC)C(C)C)[nH]4)CC3)c(F)c2)[nH]1)c1ccccc1 [compound 501] | < 1 | – | – |
| COC(=O)N[C@@H](C)C(=O)N1CCC[C@H]1c1ncc(-c2ccc([C@H]3CC[C@H](c4cnc([C@@H]5CCCN5C(=O)[C@H](C)NC(=O)OC)[nH]4)CC3)cc2)[nH]1 [compound 387] | – | – | EC50 [3]: < 1 nM |
| COC(=O)N[C@H](C(=O)N1CCOC[C@H]1c1ncc(-c2ccc(C34CCC(c5cnc([C@@H]6CCCN6C(=O)[C@@H](NC(=O)OC)C(C)C)[nH]5)(CC3)CC4)cc2)[nH]1)C(C)C [compound 2087] | – | < 1 | – |
| COC(=O)N[C@@H](C(=O)N1CCC[C@H]1c1ncc(-c2cc(F)c(N3CCC(c4cnc([C@@H]5COCCN5C(=O)[C@H](NC(=O)OC(C)(C)C)c5ccccc5)[nH]4)CC3)c(F)c2)[nH]1)c1ccccc1 [compound 489] | < 1 | – | – |
| COC(=O)N[C@H](C(=O)N1CCC[C@H]1c1ncc(-c2cc(F)c(N3CCC(c4cnc([C@@H]5CCCCN5C(=O)[C@@H](NC(=O)OC)C(C)C)[nH]4)CC3)c(F)c2)[nH]1)C(C)C [compound 503] | < 1 | – | – |
| COC(=O)N[C@@H](C(=O)N1CCC[C@H]1c1ncc(-c2ccc(C3CCC(c4cnc([C@@H]5CCCN5C(=O)[C@H](NC(=O)OC)c5ccccc5)[nH]4)CC3)cc2)[nH]1)c1ccccc1 (stereo partly drawn) [compound 373] | – | – | EC50 [3]: < 1 nM |
| CC(C)(C)OC(=O)N[C@@H](C(=O)N1CCC[C@H]1c1ncc(-c2ccc(C3CCC(c4cnc([C@@H]5CCCN5C(=O)[C@H](NC(=O)OC(C)(C)C)c5ccccc5)o4)CC3)cc2)[nH]1)c1ccccc1 (stereo partly drawn) [compound 352] | – | – | EC50 [3]: 1 to 9.9 nM |
| COC(=O)N[C@H](C(=O)N1CCC[C@H]1c1ncc(-c2ccc(C34CCC(c5cnc([C@@H]6CCCN6C(=O)[C@@H](NC(=O)OC)[C@H](C)O)[nH]5)(CC3)CC4)cc2)[nH]1)[C@H](C)O [compound 909] | – | 1 to 9.9 | – |
| CC(C)(C)OC(=O)N[C@@H](C(=O)N1CCC[C@H]1c1ncc(-c2ccc(-c3ccc4nc([C@@H]5CCCN5C(=O)[C@H](NC(=O)OC(C)(C)C)c5ccccc5)[nH]c4c3)cc2)[nH]1)c1ccccc1 [compound 400] | – | – | EC50 (read-out: Inhibition of HCV genotype 1b, Table 2, 72 h incubation): < 1 nM |
| COC(=O)N[C@H](C(=O)N1CCC[C@H]1c1nc2ccc(-c3ccc(-c4ccc5nc([C@H](C)NC(=O)[C@H](C(C)C)N(C)C)[nH]c5c4)cc3)cc2[nH]1)C(C)C [compound 935] | – | – | EC50 (read-out: Inhibition of HCV genotype 1b, Table 4, 72 h incubation): < 1 nM |
| COC(=O)N[C@H](C(=O)N1CCC[C@H]1c1ncc(-c2ccc(C34CCC(c5cnc([C@@H]6CCCN6C(=O)[C@@H](NC(=O)N6CCC(O)CC6)C(C)C)[nH]5)(CC3)CC4)cc2)[nH]1)C(C)C [compound 2059] | – | < 1 | – |
| COC(=O)N[C@H](C(=O)N1CCC[C@H]1c1ncc(-c2ccc(C34CCC(c5cnc([C@@H]6CCCN6C(=O)[C@@H](NC(=O)OC)C(C)C)[nH]5)(CC3)CC4)cc2)[nH]1)C(C)C [compound 627] | – | < 1 | – |
| O=C(N[C@@H](C(=O)N1CCC[C@H]1C(=O)N[C@H]1CC[C@@H](c2ccc(-c3cnc([C@@H]4CCCN4C(=O)[C@H](NC(=O)C4CC4)c4ccccc4)[nH]3)cc2)CC1)c1ccccc1)C1CC1 [compound 351] | – | – | EC50 [3]: < 1 nM |
| COC(=O)N[C@H](C(=O)N[C@H](c1ncc(C2CCN(c3c(F)cc(-c4cnc([C@@H]5CCCN5C(=O)[C@@H](NC(=O)OC)C(C)C)[nH]4)cc3F)CC2)[nH]1)C(C)C)C(C)C [compound 515] | < 1 | – | – |
| O=C(N[C@H]1CC[C@@H](c2cccc(-c3cnc([C@@H]4CCCN4C(=O)[C@H](NC(=O)N4CCOCC4)c4ccccc4)[nH]3)c2)CC1)[C@@H]1CCCN1C(=O)[C@H](NC(=O)N1CCOCC1)c1ccccc1 [compound 365] | – | – | EC50 [3]: 1 to 9.9 nM |
| COC(=O)NC(C(=O)N1CCC[C@H]1c1ncc(-c2ccc(C34CCC(c5cnc([C@H](C)NC(=O)[C@@H](NC(=O)OC)C(C)C)[nH]5)(CC3)CC4)cc2)[nH]1)c1ccccc1 (stereo partly drawn) [compound 2105] | – | < 1 | – |
| COC(=O)N[C@H](C(=O)N1CCC[C@H]1c1ncc(-c2ccc(C34CCC(c5cnc([C@@H]6CCCN6C(=O)[C@H](NC(=O)OC(C)(C)C)c6ccccc6)[nH]5)(CC3)CC4)cc2)[nH]1)C(C)C [compound 626] | – | < 1 | – |

Reference: patent publication US9120779B2, “Inhibitors of HCV NS5A” (PRESIDIO PHARMACEUTICALS, INC., priority 2008, dated 2015)
